This test has as its target recombinant DYRK1A kinase (Homo sapiens, UniProt Q13627). Briefly: DYRK1A kinase assay (Ser/Thr 18 peptide Z-lyte FRET). The format is biochemical. Particulars: DYRK1A kinase activity; 15 μM ATP, 4 μM Ser/Thr peptide 18, one hour at room temperature. The method in brief: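 Recombinant DYRK1A at 0.25 μg/mL was incubated 1 h at room temperature with 15 μM ATP, 4 μM Ser/Thr 18 peptide and compound, in duplicate, 11-point series from 10 μM. Phosphorylation was read by Z-lyte FRET after 1 h protease development, as the coumarin/fluorescein emission ratio converted to % phosphorylation. IC50 by non-linear regression.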

For orientation: EC50 means the concentration giving half of the maximal effect.

For `CCOc1ccc2c(-c3ccc4ncnn4c3)c[nH]c2n1` [Compound 1757, 6-(6-Ethoxy-1H-pyrrolo[2,3-b]pyridin-3-yl)-[1,2,4]triazolo[1,5-a] pyridine], the EC50 came out at 144 nM.
`Cc1cn2c(n1)CN(C(=O)c1cnc3[nH]cc(-c4cc5n(c4)CCNC5=O)c3c1)CC2` [Compound 573, 7-(5-(2-Methyl-5,6,7,8-tetrahydroimidazo[1,2-a]pyrazine-7-carbonyl)-1H-pyrrolo[2,3-b]pyridin-3-yl)-3,4-dihydropyrrolo[1,2-a]pyrazin-1(2H)-one]: the concentration for a half-maximal effect (EC50) was determined as 10 nM.
The same measure for `O=C(c1cnn2ccc(-c3c[nH]c4ncccc34)cc12)N1CCNC2(CC2)C1` [Compound 57, (5-(1H-Pyrrolo[2,3-b]pyridin-3-yl)pyrazolo[1,5-a]pyridin-3-yl)(4,7-diazaspiro[2.5]octan-7-yl)methanone]: 3 nM; for `CN1CCC(NC(=O)c2ncnc3ccc(-c4c[nH]c5ncccc45)cc23)CC1` [Compound 106, N-(1-Methylpiperidin-4-yl)-6-(1H-pyrrolo[2,3-b]pyridin-3-yl) quinazoline-4-carboxamide]: 3 nM.
The same measure for `CN1CCN(c2ncnc3ccc(-c4c[nH]c5nc(C6CC6)ccc45)cc23)CC1` [Compound 1534, 6-(6-Cyclopropyl-1H-pyrrolo[2,3-b]pyridin-3-yl)-4-(4-methylpiperazin-1-yl)quinazoline]: 12 nM; for `Cc1ccncc1-c1cnc2[nH]cc(-c3cc(F)c4nc(C)n(C(C)C)c4c3)c2c1` [Compound 1249, 4-Fluoro-1-isopropyl-2-methyl-6-(5-(4-methylpyridin-3-yl)-1H-pyrrolo[2,3-b]pyridin-3-yl)-1H-benzo[d]imidazole]: 2 nM; for `CN1CC(F)(CNC(=O)c2cnn3ccc(-c4c[nH]c5ncccc45)cc23)C1` [Compound 42, N-((3-Fluoro-1-methylazetidin-3-yl)methyl)-5-(1H-pyrrolo[2,3-b]pyridin-3-yl)pyrazolo[1,5-a]pyridine-3-carboxamide]: 2 nM.
The same measure for `O=C(NC1CCN(CC2CC2)CC1)c1cnn2ccc(-c3c[nH]c4ncccc34)cc12` [Compound 48, N-(1-(cyclopropylmethyl)piperidin-4-yl)-5-(1H-pyrrolo[2,3-b]pyridin-3-yl)pyrazolo[1,5-a]pyridine-3-carboxamide]: 1 nM; for `Cc1cn2cc(-c3c[nH]c4ncccc34)cc(F)c2n1` [Compound 13, 8-Fluoro-2-methyl-6-(1H-pyrrolo[2,3-b]pyridin-3-yl)imidazo[1,2-a]pyridine]: 21 nM.
On to `Cc1nc2c(F)cc(-c3c[nH]c4ncc(C(=O)NC5CCN(C)CC5)cc34)cc2n1C(C)C` [Compound 451, 3-(4-Fluoro-1-isopropyl-2-methyl-1H-benzo[d]imidazol-6-yl)-N-(1-methylpiperidin-4-yl)-1H-pyrrolo[2,3-b]pyridine-5-carboxamide], for which the concentration for a half-maximal effect (EC50) worked out at 4 nM.
The same measure for `CN1CCC(Oc2ncnc3ccc(-c4c[nH]c5nc(C6CCC6)ccc45)cc23)CC1` [Compound 1577, 6-(6-Cyclobutyl-1H-pyrrolo[2,3-b]pyridin-3-yl)-4-((1-methylpiperidin-4-yl)oxy)quinazoline]: 214 nM.
The same measure for `COc1ccc2c(-c3ccc4ncnn4c3)c[nH]c2n1` [Compound 1673, 6-(6-Methoxy-1H-pyrrolo[2,3-b]pyridin-3-yl)-[1,2,4]triazolo[1,5-a] pyridine]: 65 nM; for `COc1ncnc2ccc(-c3c[nH]c4nc(C5CC5)ccc34)cc12` [Compound 1533, 6-(6-Cyclopropyl-1H-pyrrolo[2,3-b]pyridin-3-yl)-4-methoxyquinazoline]: 229 nM; for `O=C1NCCn2nc(-c3c[nH]c4ncccc34)cc21` [Compound 8, 2-(1H-Pyrrolo[2,3-b]pyridin-3-yl)-6,7-dihydropyrazolo[1,5-a]pyrazin-4(5H)-one]: 7 nM.
`CN1CCN(c2cc(-c3c[nH]c4nc(NC(=O)c5ccncc5)ccc34)ccn2)CC1` [Compound 1897, N-(3-(2-(4-Methylpiperazin-1-yl)pyridin-4-yl)-1H-pyrrolo[2,3-b]pyridin-6-yl)isonicotinamide]: the EC50 was found to be 51 nM.
As for `CN1CCC(NC(=O)c2cnc3[nH]cc(-c4ccc5ncncc5c4)c3c2)CC1` [Compound 482, N-(1-Methylpiperidin-4-yl)-3-(quinazolin-6-yl)-1H-pyrrolo[2,3-b] pyridine-5-carboxamide], the EC50 came out at 15 nM.
The same measure for `CN1CC2(C1)CN(C(=O)c1cnn3ccc(-c4c[nH]c5ncccc45)cc13)C2` [Compound 62, (5-(1H-Pyrrolo[2,3-b]pyridin-3-yl)pyrazolo[1,5-a]pyridin-3-yl)(6-methyl-2,6-diazaspiro[3.3]heptan-2-yl)methanone]: 5 nM.
`Cn1cc(-c2cnc3[nH]cc(-c4ccc5nccn5c4)c3c2)cn1` [Compound 1036, 6-(5-(1-Methyl-1H-pyrazol-4-yl)-1H-pyrrolo[2,3-b]pyridin-3-yl) imidazo[1,2-a]pyridine]: the 50% effective concentration (EC50) worked out at 2 nM.
The same measure for `c1cnc2[nH]cc(-c3ccc4ncnc(N5CCNC6(CCCC6)C5)c4c3)c2c1` [Compound 98, 9-(6-(1H-Pyrrolo[2,3-b]pyridin-3-yl)quinazolin-4-yl)-6,9-diazaspiro [4.5]decane]: 2 nM.
The same measure for `COc1ccc(Nc2ncnc3ccc(-c4c[nH]c5ncccc45)cc23)cn1` [Compound 101, N-(6-Methoxypyridin-3-yl)-6-(1H-pyrrolo[2,3-b]pyridin-3-yl) quinazolin-4-amine]: 6 nM; for `COc1ccc(-c2c[nH]c3ncccc23)cn1` [Compound 67, 3-(6-Methoxypyridin-3-yl)-1H-pyrrolo[2,3-b]pyridine]: 19 nM.
`CN1C2CCC1CN(C(=O)c1cnc3[nH]cc(-c4cc5ccncc5s4)c3c1)C2` [Compound 2041, (8-Methyl-3,8-diazabicyclo[3.2.1]octan-3-yl)(3-(thieno[2,3-c]pyridin-2-yl)-1H-pyrrolo[2,3-b]pyridin-5-yl)methanone]: the EC50 is 115 nM.
The same measure for `O=C(NCC(F)F)c1cnc2ccc(-c3c[nH]c4nc(C5CC5)ccc34)cn12` [Compound 1499, 6-(6-Cyclopropyl-1H-pyrrolo[2,3-b]pyridin-3-yl)-N-(2,2-difluoroethyl) imidazo[1,2-a]pyridine-3-carboxamide]: 1 nM.
On to `CN1CCC(Nc2ncnc3ccc(-c4c[nH]c5ncccc45)cc23)CC1` [Compound 100, N-(1-Methylpiperidin-4-yl)-6-(1H-pyrrolo[2,3-b]pyridin-3-yl) quinazolin-4-amine], for which the concentration for a half-maximal effect (EC50) is 6 nM.
The same measure for `O=C1NCCc2sc(-c3c[nH]c4ncccc34)cc21` [Compound 11, 2-(1H-Pyrrolo[2,3-b]pyridin-3-yl)-6,7-dihydrothieno[3,2-c]pyridin-4(5H)-one]: 12 nM; for `CN1CCN(C2CCN(C(=O)c3cnn4ccc(-c5c[nH]c6ncccc56)cc34)CC2)CC1` [Compound 54, (5-(1H-Pyrrolo[2,3-b]pyridin-3-yl)pyrazolo[1,5-a]pyridin-3-yl)(4-(4-methylpiperazin-1-yl)piperidin-1-yl)methanone]: 18 nM; for `COCCN1CCC(NC(=O)c2cnn3ccc(-c4c[nH]c5ncccc45)cc23)CC1` [Compound 50, N-(1-(2-Methoxyethyl)piperidin-4-yl)-5-(1H-pyrrolo[2,3-b]pyridin-3-yl)pyrazolo[1,5-a]pyridine-3-carboxamide]: 1 nM.
The same measure for `O=C1NCCOc2cc(-c3c[nH]c4nc(C5CCC5)ccc34)ccc21` [Compound 1571, 8-(6-Cyclobutyl-1H-pyrrolo[2,3-b]pyridin-3-yl)-3,4-dihydrobenzo[f] [1,4]oxazepin-5(2H)-one]: 50 nM; for `c1cncc(CNc2ncnc3ccc(-c4c[nH]c5ncccc45)cc23)c1` [Compound 103, N-(Pyridin-3-ylmethyl)-6-(1H-pyrrolo[2,3-b]pyridin-3-yl)quinazolin-4-amine]: 1 nM.
The same measure for `c1cnc2sc(-c3c[nH]c4ncccc34)nc2c1` [Compound 4, 2-(1H-Pyrrolo[2,3-b]pyridin-3-yl)thiazolo[5,4-b]pyridine]: 7 nM.
Consider `O=C1NCCOc2cc(-c3c[nH]c4ncccc34)ccc21` [Compound 84, 8-(1H-Pyrrolo[2,3-b]pyridin-3-yl)-3,4-dihydrobenzo[f][1,4]oxazepin-5(2H)-one], for which the concentration for a half-maximal effect (EC50) stood at 3 nM.
The same measure for `O=C1CC2(CCNCC2)Oc2cc(-c3c[nH]c4ncc(Cl)cc34)ccc21` [Compound 226, 7-(5-Chloro-1H-pyrrolo[2,3-b]pyridin-3-yl)spiro[chromane-2,4′-piperidin]-4-one]: 36 nM.
The same measure for `CN1CCN(C(=O)c2cnc3cnc(-c4c[nH]c5ncccc45)cn23)CC1` [Compound 21, (6-(1H-Pyrrolo[2,3-b]pyridin-3-yl)imidazo[1,2-a]pyrazin-3-yl)(4-methylpiperazin-1-yl)methanone]: 16 nM.
The same measure for `CC(F)(F)CN1CCC(NC(=O)c2cnn3ccc(-c4c[nH]c5ncccc45)cc23)CC1` [Compound 49, N-(1-(2,2-Difluoropropyl)piperidin-4-yl)-5-(1H-pyrrolo[2,3-b]pyridin-3-yl)pyrazolo[1,5-a]pyridine-3-carboxamide]: 1 nM; for `c1cnc2[nH]cc(-c3nc4cnccc4[nH]3)c2c1` [Compound 7, 2-(1H-Pyrrolo[2,3-b]pyridin-3-yl)-1H-imidazo[4,5-c]pyridine]: 201 nM; for `CN1Cc2cc(-c3c[nH]c4ncccc34)ccc2C1=O` [Compound 76, 2-Methyl-5-(1H-pyrrolo[2,3-b]pyridin-3-yl)isoindolin-1-one]: 31 nM.
With `Cc1nc2c(F)cc(-c3c[nH]c4nc(NC(=O)C5CCN(C)CC5)ccc34)cc2n1C(C)C` [Compound 1837, N-(3-(4-Fluoro-1-isopropyl-2-methyl-1H-benzo[d]imidazol-6-yl)-1H-pyrrolo[2,3-b]pyridin-6-yl)-1-methylpiperidine-4-carboxamide], the EC50 was 1 nM.

These data come from patent publication US20230192686A1, “1H-PYRROLO[2,3-B]PYRIDINES AND PREPARATION AND USES THEREOF” (BioSplice Therapeutics, Inc., priority 2021, published 2023).
